# In patent publication US8541410B2, “Sulfur substituted sulfonylaminocarboxylic acid N-arylamides, their preparation, their use and pharmaceutical preparations comprising them” (Sanofi-aventis Deutschland GmbH, priority 1998, dated 2013):
# What was measured:
# [1] = test system: rat aorta rings; test: Relaxation of rat aorta (phenylephrine-precontracted rings); type: cell-based, rat (Wistar-Kyoto); settings: 50% relaxation of phenylephrine (1 μM) contraction
# Excerpt: For this test, normotensive male Wistar-Kyoto rats were sacrificed by a blow to the neck. The abdominal cavity and the thorax were opened by a medium stemotomy. The descending aorta was subsequently removed, freed of connective tissue and divided into 8 rings of a length of approximately 4 mm. The tip of a pair of tweezers was introduced into the lumen of 4 of the 8 rings. The endothelium was removed by carefully rolling the rings over the tip of the pair of tweezers. All 8 aorta rings (4 with endothelium and 4 without endothelium) were subsequently suspended in an organ bath (Schuler-Organbad; Hugo Sachs Elektronik) at a constant temperature of 37° C. for the isometric determination of the contractile tone. For 30 minutes, the rings were calibrated at a resting tension of 0.1 g in carbonated (95% O2; 5% CO2) Krebs-Henseleit solution (composition: Na^+ 144.0 mM; K^+ 5.9 mM; Cl^− 126.9 mM; Ca^2+ 1.6 mM; […] 1.2 mM; H2PO4^− 1.2 mM; SO4^2− 1.2 mM; HCO3^− 25.0 mM; D-glucose 11.1 mM) of pH 7.4. Additionally, 1 μmol/l of indomethacin were added to the Krebs-Henseleit solution to inhibit prostaglandin biosynthesis. The rings were subsequently precontracted by addition of phenylephrine (concentration in the solution: 1 μM) and the endothelium-dependent relaxation or the functional loss of the endothelium was tested by addition of acetylcholine (concentration in the solution: 1 μM). After a 30-minute washing period, the rings were then again precontracted by addition of phenylephrine (1 μM), and the relaxing action of the test substances of the formula I was determined by administration of cumulative doses of the latter. The data were evaluated by standard methods. Given is the concentration IC50 by which contraction is inhibited by 50% (50% relaxation).
# [2] = biological target: T1, soluble guanylate cyclase (sGC) (Bos taurus, UniProt P16068); test: Activation of the soluble guanylate cyclase (cGMP enzyme immunoassay); type: biochemical, bovine; settings: n-fold stimulation of basal enzyme activity
# T1 construct: The sGC which was employed had been isolated from bovine lung; from tissue; host or cells: bovine lung
# T1 sequence (P16068 1-619): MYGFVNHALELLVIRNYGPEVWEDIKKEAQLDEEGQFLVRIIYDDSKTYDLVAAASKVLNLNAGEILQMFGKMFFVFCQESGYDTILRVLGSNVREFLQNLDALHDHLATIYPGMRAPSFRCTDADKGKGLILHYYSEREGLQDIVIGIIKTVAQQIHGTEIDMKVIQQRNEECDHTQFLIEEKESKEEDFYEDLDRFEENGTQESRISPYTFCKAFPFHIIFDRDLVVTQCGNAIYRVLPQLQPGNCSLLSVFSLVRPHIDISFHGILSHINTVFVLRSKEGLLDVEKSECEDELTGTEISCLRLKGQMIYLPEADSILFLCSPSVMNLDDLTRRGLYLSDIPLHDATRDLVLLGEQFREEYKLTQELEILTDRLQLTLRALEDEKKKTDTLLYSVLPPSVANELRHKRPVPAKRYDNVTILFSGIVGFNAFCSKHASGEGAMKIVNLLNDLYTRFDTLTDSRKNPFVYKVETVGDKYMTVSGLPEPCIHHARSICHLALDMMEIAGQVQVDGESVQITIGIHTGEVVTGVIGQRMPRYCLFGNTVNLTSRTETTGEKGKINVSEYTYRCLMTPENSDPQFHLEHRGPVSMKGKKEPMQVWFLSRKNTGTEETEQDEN
# T1 sequence (P19687 1-691 partner): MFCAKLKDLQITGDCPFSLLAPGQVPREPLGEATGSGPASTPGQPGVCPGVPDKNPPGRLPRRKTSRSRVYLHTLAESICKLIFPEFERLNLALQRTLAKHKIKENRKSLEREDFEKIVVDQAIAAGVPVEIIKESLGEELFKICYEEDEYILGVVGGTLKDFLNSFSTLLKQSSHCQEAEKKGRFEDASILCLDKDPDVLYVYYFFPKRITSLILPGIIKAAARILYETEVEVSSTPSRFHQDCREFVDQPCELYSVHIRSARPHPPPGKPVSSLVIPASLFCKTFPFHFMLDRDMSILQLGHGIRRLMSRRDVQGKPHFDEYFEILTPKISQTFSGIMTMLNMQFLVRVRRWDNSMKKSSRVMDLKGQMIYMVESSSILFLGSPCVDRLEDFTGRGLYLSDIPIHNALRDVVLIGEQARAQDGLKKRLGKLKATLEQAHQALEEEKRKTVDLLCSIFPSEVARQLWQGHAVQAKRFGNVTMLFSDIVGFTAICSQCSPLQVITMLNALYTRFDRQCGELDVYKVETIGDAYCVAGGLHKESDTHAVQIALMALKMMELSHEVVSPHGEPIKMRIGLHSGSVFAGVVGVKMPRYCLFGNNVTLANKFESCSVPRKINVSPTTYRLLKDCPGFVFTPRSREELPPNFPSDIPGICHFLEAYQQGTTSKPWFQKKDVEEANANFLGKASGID
# Description: The activation of the soluble guanylate cyclase (sGC) which catalyzes the conversion of guanosine triphosphate (GTP) into cyclic guanosine monophosphate (cGMP) and pyrophosphate, by the compounds according to the invention was quantified with the aid of an enzyme immunoassay (EIA) from Amersham. For this purpose the substances to be tested were initially incubated with sGC in microtiter plates, and the amount of the cGMP formed was then determined.
# The sGC which was employed had been isolated from bovine lung (see Methods in Enzymology, Volume 195, p. 377). The test solutions (100 μl per well) contained 50 mM triethanolamine (TEA) buffer (pH 7.5), 3 mM MgCl2, 3 mM reduced glutathione (GSH), 0.1 mM GTP, 1 mM 3-isobutyl-1-methylxanthine (IBMX), suitably diluted enzyme solution and the substance to be tested or, in the control experiments, the solvent. The substances to be tested were dissolved in dimethyl sulfoxide (DMSO) and the solution was diluted with DMSO/water, so that the final concentration (c) of the substance to be tested in the test solution had the value indicated in the table. The DMSO concentration in the test solution was 5% (v/v). The reaction was initiated by addition of the sGC. The reaction mixture was incubated at 37° C. for 15 to 20 minutes and then stopped by ice-cooling and addition of the stop reagent (50 mM EDTA, pH 8.0). An aliquot of 50 μl was taken and used for determining the cGMP content using the acetylation protocol of the Amersham cGMP-EIA kit. The absorption of the samples was measured at 450 nm (reference wavelength 620 nm) in a microtiter plate reader. The cGMP concentration was determined using a standard curve which was obtained under the same test conditions. The activation of sGC by a test substance is given as the n-fold stimulation of the basal enzyme activity which was found in the control experiments (using solvent instead of test substance) (calculated using the formula n-fold stimulation=[cGMP]test substance/[cGMP]control).
# [3] = test system: pig; test: Hemodynamic effect in the pig; type: in vivo, pig (German landrace); settings: 10 mg/kg i.d., anesthetized pigs
# Description: Three pigs (German landrace) were anesthetized (Ketamine 20 mg/kg i.m., Methomidate 8 mg/kg i.p., Xylazine 2.5 mg/kg i.m. and Pentobarbital 25 mg/kg i.v. as a bolus plus 0.16 mg/kg per minute). The trachea was intubated and the animals were given artificial respiration with air. Oxygen was added to keep the blood gas parameters in the normal range. To record the blood pressure (BP; BP(s)=systolic blood pressure, BP(d)=diastolic blood pressure) by means of a Statham 23 Db pressure transducer a catheter was inserted into the right A. Femoralis. The left ventricular pressure (LVP), the left ventricular end-diastolic pressure (LVEDP), the contractility (dP/dt) and the heart rate (HR) were determined with a Millar PC 350 catheter “tip manometer” which was inserted into the […] ventricle. After a stabilization period of the hemodynamic parameters of 30 minutes the test substance was administered in the indicated dose into the exposed duodenum by means of a catheter. The determined data were evaluated according to standard methods. Given are the means and the standard deviations (M±SEM) of the starting values and of the maximal changes of the individual parameters (=maximal effects).
smiles,measurement,setting,value
"COc1cc(NS(=O)(=O)c2ccc(Cl)cc2)c(C(=O)Nc2ccc(S(=O)(=O)N3CCSCC3)cc2)cc1OC [Example 59, 2-(4-Chloro-phenylsulfonylamino)-4,5-dimethoxy-N-(4-(thiomorpholine-4-sulfonyl)-phenyl)-benzamide]",IC50,[1]; ring with endothelium,0.52 µM
same,IC50,[1]; ring without endothelium,0.27 µM
same,n-fold stimulation,[2]; concentration c 50 μM,34.8
"COc1cc(NS(=O)(=O)c2ccc(Cl)cc2)c(C(=O)Nc2ccc(S(=O)(=O)N3C[C@@H](C)O[C@@H](C)C3)cc2)cc1OC [Example 88, 2-(4-Chloro-phenylsulfonylamino)-N-(4-(cis-2,6-dimethyl-morpholine-4-sulfonyl)-phenyl)-4,5-dimethoxy-benzamide]",IC50,[1]; ring with endothelium,0.67 µM
same,IC50,[1]; ring without endothelium,0.29 µM
same,n-fold stimulation,[2]; concentration c 50 μM,24.4
same,BP(d) duration of action,[3],>0.125 days
same,BP(s) duration of action,[3],>10800 s
same,HR duration of action,[3],>180 min
same,LVEDP duration of action,[3],>180 min
same,dP/dtmax duration of action,[3],>180 min
same,dP/dtmax maximal alteration,"[3]; contractility, M±SEM",−633 ± 33 mm Hg/sec
same,BP(d) maximal alteration,"[3]; diastolic blood pressure, M±SEM",−20 ± 8 mm Hg
same,HR maximal alteration,"[3]; heart rate, M±SEM",−8 ± 2 beats/min
same,LVEDP maximal alteration,"[3]; left ventricular end-diastolic pressure, M±SEM",−1.3 ± 0.3 mm Hg
same,BP(s) maximal alteration,"[3]; systolic blood pressure, M±SEM",−23 ± 6 mm Hg
"O=C(Nc1ccc(S(=O)(=O)N2CCOCC2)cc1)c1cc(Cl)ccc1NS(=O)(=O)c1ccc(Cl)s1 [Example 129, 5-Chloro-2-(5-chloro-thiophene-2-sulfonylamino)-N-(4-(morpholine-4-sulfonyl)-phenyl)-benzamide]",IC50,[1]; ring with endothelium,0.46 µM
same,IC50,[1]; ring without endothelium,0.31 µM
same,n-fold stimulation,[2]; concentration c 50 μM,8.6
"COc1cc(NS(=O)(=O)c2ccc(Cl)s2)c(C(=O)Nc2ccc(S(=O)(=O)N3CCSCC3)cc2)cc1OC [Example 206, 4,5-Dimethoxy-2-(5-chloro-thiophene-2-sulfonylamino)-N-(4-(thiomorpholine-4-sulfonyl)-phenyl)-benzamide]",n-fold stimulation,[2]; concentration c 50 μM,19.3
"Cc1noc(C)c1S(=O)(=O)Nc1ccc(Cl)cc1C(=O)Nc1ccc(S(=O)(=O)N2CCc3ccccc3C2)cc1 [Example 208, 5-Chloro-2-(3,5-dimethyl-isoxazole-4-sulfonylamino)-N-(4-(1,2,3,4-tetrahydro-isoquinoline-2-sulfonyl)-phenyl)-benzamide]",n-fold stimulation,[2]; concentration c 10 μM,23.1
"Cc1noc(C)c1S(=O)(=O)Nc1ccc(Cl)cc1C(=O)Nc1ccc(S(=O)(=O)N(C)Cc2cccnc2)cc1 [Example 209, 5-Chloro-2-(3,5-dimethyl-isoxazde-4-sulfonylamino)-N-(4-(N-methyl-N-(pyridin-3-yl-methyl)-aminosulfonyl)-phenyl)-benzamide]",n-fold stimulation,[2]; concentration c 10 μM,28.5
"Cc1noc(C)c1S(=O)(=O)Nc1ccc(Cl)cc1C(=O)Nc1ccc(S(=O)(=O)N2C[C@@H](C)O[C@@H](C)C2)cc1 [Example 222, 5-Chloro-2-(3,5-dimethyl-isoxazole-4-sulfonylamino)-N-(4-(cis-2,6-dimethyl-morpholine-4-sulfonyl)-phenyl)-benzamide]",n-fold stimulation,[2]; concentration c 10 μM,29.5
"Cc1noc(C)c1S(=O)(=O)Nc1ccc(Cl)cc1C(=O)Nc1ccc(S(=O)(=O)N2CC(C)CC(C)C2)cc1 (stereo not drawn) [Example 223, 5-Chloro-2-(3,5-dimethyl-isoxazole-4-sulfonylamino)-N-(4-(3,5-dimethylpiperidine-1-sulfonyl)-phenyl)-benzamide]",n-fold stimulation,[2]; concentration c 10 μM,27.1
"Cc1noc(C)c1S(=O)(=O)Nc1ccc(Cl)cc1C(=O)Nc1ccc(S(=O)(=O)N2CCOCC2)cc1 [Example 224, 5-Chloro-2-(3,5-dimethyl-isoxazole-4-sulfonylamino)-N-(4-(morpholine-4-sulfonyl)-phenyl)-benzamide]",n-fold stimulation,[2]; concentration c 50 μM,27.8
O=C(Nc1ccc(S(=O)(=O)c2ccccc2)cc1)c1cc(Cl)ccc1NS(=O)(=O)c1ccc(Cl)s1 [Example 225],n-fold stimulation,[2]; concentration c 10 μM,13.4
"C[C@@H]1CN(S(=O)(=O)c2ccc(NC(=O)c3ccc(Cl)cc3NS(=O)(=O)c3ccc(Cl)cc3)cc2)C[C@H](C)O1 [Example 226, 4-Chloro-2-(4-chloro-phenylsulfonylamino)-N-(4-(cis-2,6-dimethyl-morpholine-4-sulfonyl)-phenyl)-benzamide]",n-fold stimulation,[2]; concentration c 25 μM,3.3
